{"source": "patent US6492137B1", "about": "“Response element compositions and assays employing same” (The Salk Institute for Biological Studies, priority 1989, dated 2002)", "key": {"TRβ [1]": {"molecular_target": "T1, TRβ (Homo sapiens, UniProt P10828)", "T1 sequence (P10828 1-461)": "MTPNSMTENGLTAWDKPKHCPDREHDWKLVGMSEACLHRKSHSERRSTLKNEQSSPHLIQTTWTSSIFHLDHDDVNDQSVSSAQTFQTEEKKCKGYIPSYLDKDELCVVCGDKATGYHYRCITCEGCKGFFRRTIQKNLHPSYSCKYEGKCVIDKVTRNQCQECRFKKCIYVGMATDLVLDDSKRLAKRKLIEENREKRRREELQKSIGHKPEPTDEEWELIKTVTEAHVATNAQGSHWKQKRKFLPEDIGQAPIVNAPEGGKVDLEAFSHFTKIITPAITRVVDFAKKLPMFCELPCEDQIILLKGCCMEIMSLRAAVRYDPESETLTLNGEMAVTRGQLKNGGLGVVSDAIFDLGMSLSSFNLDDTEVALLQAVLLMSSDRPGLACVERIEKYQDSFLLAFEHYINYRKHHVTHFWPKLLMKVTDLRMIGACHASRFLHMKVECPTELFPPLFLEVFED", "test": "ΔSV-CAT reporter cotransfection assay in CV-1 cells with TRβ expression plasmid, ±T3", "assay_type": "cell-based", "parameters": "expressed in transfected cells; host or cells: CV-1 (monkey kidney)", "conditions": "TRβ expression vector", "source_text": "Receptor expression plasmids used in the following cotransfection assays have been described previously (pRShTRβ [see Thompson, et al., Proc. Natl. Acad. Sci. U.S.A. 86: 3494-3498 (1989)]; pRShRARα [see Giguere, et al., Nature 330: 624-629 (1987)]; pRShRARβ and pRshRARγ [see Ishikawa, et al., Mol. Endocrinol, 4: 837-844 (1990)]; and pRShVDR, [Schule, et al., Cell 61: 497-504 (1990)]. A basal reporter plasmid ΔSV-CAT was constructed by replacing the TK promoter in TK-CAT [Damm, et al., Nature 339: 593-597 (1989)] with the SphI-HindIII fragment of the SV40 early promoter. All of the recombinant CAT reporter plasmids used herein harbor a single copy of the indicated oligonucleotides at the unique HindIII site upstream of the SV40 promoter. […] To improve production of receptor proteins in COS cells, a new eukaryotic expression vector pCMX was prepared by modifying the plasmid CDM8 [Seed, B., Nature 329: 840-842 (1987)]. The CDM8 was cut with MluI and StuI in order to release the DNA fragment encoding the CMV/T7 promoter, SV40 small t intron/poly A signal, polyoma virus enhancer/origin, and SV40 enhancer/origin. The resulting fragment was ligated to a larger fragment of PvuII-digested PUC19. An internal deletion was introduced between unique BamHI and BclI sites present in the DCM8 portion. The stuffer sequence flanked by XbaI sites was replaced with a synthetic polylinker coding for 5′-KpnI/Asp718-EcoRV-BamHI -MscI-NheI-3′, followed by a stretch of 5′-[…]-3′ (SEQ ID NO:48) which can function as a universal termination signal for protein translation. The coding sequence of the luciferase [de Wet, et al., Mol. Cell. Biol. 7: 725-737 (1987)] and human TRβ, RARα, and VDR was placed in the polylinker region of the pCMX, generating pCMX-LUC, Pcmx-Htrβ, pCMX-hRARα, and pCMX-hVDR, respectively. The translation start site of the RARα was modified to […] by attaching the synthetic linker encoding a consensus translation start signal [Hollenberg, et al., Cell 55: 899-906 (1988)].\n(§1) For cotransfection assays, a monkey kidney cell line CV-1 was kept in Dulbecco's modified Eagle's medium (DMEM) supplemented with 10% charcoal-resin double split calf bovine serum. Transfections were performed via calcium-phosphate precipitation method as described by Umesono, et al. in Cell 57: 1139-1146 (1989), with 0.5 μg of a pRS receptor expression plasmid, 1.0 μg of a reporter CAT plasmid, 5 μg of pRAS-βGAL [Umesono, et al., Cell 57: 1139-1146 (1989)] as an internal control, and 8.5 μg of carrier plasmid pUC19. The cells were transfected for 8 hours; after washing the DNA precipitates, the cells were then incubated for an additional 36 hours with or without the ligand (T3, 100 nM; RA, 1 μM; 1,25-(OH)2 vitamin D3, 100 nM). Cell extracts were prepared for βGAL and CAT assays, as described by Umesono, et al., supra. Transfection of F9 teratocarcinoma cells was carried out employing a similar method except the cells were incubated for 12 hours in the presence of the DNA precipitates, and the RA was added at 1 μM for another 24 hours before harvesting the cells. 2, 5, and 4 μg of the reporter, pRAS-βGAL, and pUC19 were used, respectively.\nTarget hormone response elements described in FIG. 3 were synthesized as double-stranded oligonucleotides with an overhanging tetranucleotide (5′-agct-3′) at both ends. A single copy of these oligonucleotides was cloned at the unique HindIII site present in the basal promoter CAT construct ΔSV-CAT. Capitalized portions in the nucleotide sequences correspond to those found in the natural promoters except TREp and rGH21, which are synthetic. Bold letters indicate the “AGGTCA” motif and “X” denotes a nucleotide substitution from this motif."}, "TRβ [2]": {"molecular_target": "T1, TRβ", "test": "Gel retardation DNA-binding assay with TRβ-expressing COS cell extracts", "parameters": "expressed in transfected cells; host or cells: COS cells (whole-cell extract)", "conditions": "for competition for TRβ binding to 32P-labeled MHC-N: 50-fold excess of unlabeled oligonucleotide, COS cell extracts; for TRβ binding to labeled oligonucleotide probe: gel retardation, TRβ COS cell extract", "experimental": "For DNA binding assays, COS cells were cultured in DMEM with 10% calf bovine serum and transfected by the calcium phosphate method with 20 μg of the pCMX receptor expression plasmid for 6 hours followed by a glycerol shock. After incubating the transfected COS cells for another 48 hours, the cells were harvested to prepare extracts for the DNA binding assay, carried out as described by Damm et al., Nature 339: 593-597 (1989). The extracts were made in 20 mM HEPES (pH 7.4), 0.4 M KCl, 2 mM DTT and 20% glycerol. A similar method was employed to prepare a whole cell extract from F9 stem cells. For the binding, 5 μg (COS) or 10 μg (F9) of proteins was incubated on ice for 20 minutes, first in 20 mM HEPES, 80 mM KCl, 1 mM DTT, 0.1% NP40, 2.5 μg of poly dI/dC, and 10% glycerol (cold competitor oligonucleotides, when included, were added during this pre-incubation period). Then 40 fmole of ^32P-labeled oligonucleotide probe (1-2×10^5 cpm, prepared by filling-in reaction using Klenow polymerase in the presence of α-^32P-dCTP) was added to the reaction mixture, followed by incubation at room temperature for 30 minutes. The receptor-DNA complexes were resolved by electrophoresis through 5% polyacrylamide gel containing 5% glycerol at 6 V/cm at room temperature.\nOligonucleotides listed in FIG. 3 were used as a probe to test specific DNA-binding of the RARα and TRβ in a gel retardation assay.\nUsing the mobility shift assay, the DNA-binding capacity of extracts from COS cells expressing TRβ and RARα to these sequences was also tested."}, "[3]": {"system": "F9 teratocarcinoma stem cells", "test": "CAT reporter transfection into RA responsive F9 teratocarcinoma stem cells", "assay_type": "cell-based, mouse", "conditions": "RA 1 μM, 24 hours; no transfected receptor", "experimental": "as §1\nSimilarly, when the same set of reporters as in FIG. 4 were transfected into F9 cells, only MHC-R (5-nucleotide spacer) and TREp are potent RAREs. In contrast, its RARE antecedents (MHC-N, MHC+1, MHC-T) are inert."}}, "data": [{"substance": "M1: MHC-N with nucleotide substitutions in the proposed direct repeat motif (SEQ ID NO:15) (AGCTGGAAATGACAGGAGGACAGCAAGCT; DNA, backbone not given here; double-stranded DNA response element with agct overhangs, cloned into reporter)", "values": [{"measurement": "T3 responsiveness (in words)", "setting": "TRβ [1]", "value": "completely silent to T3"}, {"measurement": "competition for TRβ binding to 32P-labeled MHC-N", "setting": "TRβ [2]", "value": "did not"}]}, {"substance": "M2: MHC-N mutant with nucleotide substitutions in the presumed palindrome (SEQ ID NO:16) (AGCTGGAGGTGACGAAAGGACAGCAAGCT; DNA, backbone not given here; double-stranded DNA response element with agct overhangs, cloned into reporter)", "values": [{"measurement": "T3 responsiveness (in words)", "setting": "TRβ [1]", "value": "retains a T3 response though impaired"}, {"measurement": "competition for TRβ binding to 32P-labeled MHC-N", "setting": "TRβ [2]", "value": "competed"}]}, {"substance": "M3: MHC-N with nucleotide substitutions in the proposed direct repeat motif (SEQ ID NO:17) (AGCTGGAGGTGACAGGAAAACAGCAAGCT; DNA, backbone not given here; double-stranded DNA response element with agct overhangs, cloned into reporter)", "values": [{"measurement": "T3 responsiveness (in words)", "setting": "TRβ [1]", "value": "completely silent to T3"}, {"measurement": "competition for TRβ binding to 32P-labeled MHC-N", "setting": "TRβ [2]", "value": "did not"}]}, {"substance": "MHC+1: MHC-N with half-site spacing increased by one nucleotide (SEQ ID NO:22) (AGCTGGAGGTGAACAGGAGGACAGCAAGCT; DNA, backbone not given here; double-stranded response element with agct overhangs, cloned into reporter plasmid)", "values": [{"measurement": "competition for TRβ binding (mobility shift assay)", "setting": "TRβ [2]; unlabeled competitor oligonucleotide, COS cells expressing TRβ", "value": "poor competitors"}, {"measurement": "function as RARE in F9 cells", "setting": "[3]", "value": "inert"}]}, {"substance": "MHC-D: segment of the MHC sequence including an adjacent sequence; deletion from MHC-L (SEQ ID NO:13) (AGCTTGAGGTGACAGGAGGACAGCAGCT; DNA, backbone not given here; double-stranded DNA response element with agct overhangs, cloned into reporter)", "values": [{"measurement": "T3 responsiveness (in words)", "setting": "TRβ [1]", "value": "recovery of the full response"}]}, {"substance": "MHC-L: wild-type MHC sequence encoding a TRE in the MHC gene promoter (SEQ ID NO:11) (AGCTCCTTGGCTCTGGAGGTGACAGGAGGACAGCAGCT; DNA, backbone not given here; double-stranded response element with agct overhangs, cloned into reporter plasmid)", "values": [{"measurement": "T3 responsiveness (in words)", "setting": "TRβ [1]", "value": "responsive to T3"}]}, {"substance": "MHC-S: restricted region of MHC-L corresponding to the predicted palindrome (SEQ ID NO:12) (AGCTCTCTGGAGGTGACAGGAAGCT; listed as DNA, further chemistry not given here)", "values": [{"measurement": "T3 responsiveness (in words)", "setting": "TRβ [1]", "value": "failed to confer T3 responsiveness"}]}, {"substance": "MLV-LTR: thyroid response element found in the murine Maloney Leukemia Virus LTR (SEQ ID NO:19) (DNA AGCTCAGGGTCATTTCAGGTCCTTGAAGCT; listed as DNA, chemistry not given here) [reference compound]", "values": [{"measurement": "T3 responsiveness (in words)", "setting": "TRβ [1]", "value": "confers T3 inducibility"}, {"measurement": "TRβ binding to labeled oligonucleotide probe", "setting": "TRβ [2]", "value": "high affinity"}]}, {"substance": "rGH21: rat growth hormone gene sequence proposed as a candidate TRE (SEQ ID NO:20) (AGCTAGGTAAGATCAGGTAAGTAGCT; listed as DNA, chemistry not fully specified) [reference compound]", "values": [{"measurement": "T3 responsiveness (in words)", "setting": "TRβ [1]", "value": "fails to confer T3-dependent transactivation"}, {"measurement": "TRβ binding to labeled oligonucleotide probe", "setting": "TRβ [2]", "value": "binds very poorly"}]}]}
